# Test results published in patent US20230304010A1, “COMPOSITIONS AND METHODS FOR TREATING VIRAL INFECTIONS” (priority 2020, published 2023).
# Read-outs that look alike come from different tables or passages of the source.
# Key:
# [1] = test system: ACE2 : SARS-CoV-2 Spike Beta (B1.351/South Africa) variant; type: binding; conditions: read-out: IC50, Beta (B1312)
# [2] = test system: SARS-CoV-2 variants (Alpha/Beta/Delta); type: cell-based
# [3] = test system: ACE2 : SARS-CoV-2 Spike Epsilon (B1429) variant; type: binding
# [4] = test system: ACE2 : SARS-CoV-2 Spike Alpha (B1.1.7/United Kingdom) variant; type: binding; conditions: read-out: IC50, Alpha (B117)
# [5] = test system: ACE2 : SARS-CoV-2 Spike Delta (B1 617 2/India) variant; type: binding; conditions: read-out: IC50, Delta (B1617)
# [6] = test system: ACE2 : SARS-CoV-2 Spike Gamma (P1/Brazil) variant; type: binding
Compound,IC50 [1],fold stronger anti-SARS-CoV-2 activity than Remdesivir [2],IC50 [3],IC50 [4],IC50 [5],IC50 [6],IC50 (SARS-CoV-2 Alpha variant; read-out: Alpha (B117) IC50),IC50 (SARS-CoV-2 Beta variant; read-out: Beta (B1312) IC50),inhibitory activity against all SARS-CoV2 variant viruses [2],IC50 (SARS-CoV-2 Delta variant; read-out: Delta (B1617) IC50),"IC50 (SARS-CoV-2 Alpha variant; read-out: IC50, Alpha (B117))","IC50 (SARS-CoV-2 Beta variant; read-out: IC50, Beta (B1312))","IC50 (SARS-CoV-2 Delta variant; read-out: IC50, Delta (B1617))"
CC(=O)N[C@@H](CCC(=O)O)C(=O)N[C@@H](CCC(N)=O)C(=O)N[C@@H](C)C(=O)N[C@@H](CCCCN)C(=O)N[C@H](C(=O)N[C@@H](Cc1ccccc1)C(=O)N[C@@H](CC(C)C)C(=O)N[C@@H](CC(=O)O)C(=O)N[C@@H](CCCCN)C(=O)N[C@@H](Cc1ccccc1)C(=O)N[C@@H](CC(N)=O)C(=O)N[C@@H](Cc1c[nH]cn1)C(=O)N[C@@H](CCC(=O)O)C(=O)N[C@@H](C)C(=O)N[C@@H](CCC(=O)O)C(=O)N[C@@H](CC(=O)O)C(=O)N[C@@H](CC(C)C)C(=O)N[C@@H](Cc1ccccc1)C(=O)NCCCCCC(=O)N[C@@H](CC(C)C)C(=O)N[C@@H](Cc1c[nH]c2ccccc12)C(=O)N[C@@H](CCCNC(=N)N)C(=O)N[C@@H](C)C(=O)N[C@@H](CC(C)C)C(=O)N[C@@H](Cc1c[nH]c2ccccc12)C(=O)N[C@@H](CCCNC(=N)N)C(=O)N[C@@H](CC(C)C)C(=O)N[C@@H](Cc1c[nH]c2ccccc12)C(=O)N[C@@H](CCCNC(=N)N)C(=O)N[C@@H](CO)C(=O)N[C@@H](CC(C)C)C(=O)N[C@@H](Cc1c[nH]c2ccccc12)C(=O)N[C@@H](CCCNC(=N)N)C(=O)N[C@@H](CC(C)C)C(=O)N[C@@H](CC(C)C)C(=O)N[C@@H](Cc1c[nH]c2ccccc12)C(=O)N[C@@H](CCCCN)C(N)=O)[C@@H](C)O [Seq33],28.8 ± 10 nM,200 fold,31.4 ± 9 nM,17.8 ± 9 nM,25.7 ± 8 nM,20.2 ± 5 nM,,,,,,,
GGCCAAACTGTCACTAAGAAA (chemistry not given here) [DIVC-6],,,,,,,84.5 nM,58.5 nM,potent inhibitory activity,91.3 nM,,,
Ac-N*GVEGFNK*Ava-LWRALWRLWRSLWRLLWK-NH2 [Seq17],75.2 ± 21 nM,,94.7 ± 17 nM,136 ± 21 nM,48.2 ± 11 nM,87.2 ± 20 nM,125 ± 24 nM,118 ± 15 nM,,25.7 ± 10 nM,125 ± 24 nM,118 ± 15 nM,25.7 ± 10 nM
